SMILES strings stand for the structures.

The target of this test is Carbonic anhydrase 9 (Homo sapiens, UniProt Q16790). The test is described as follows: Inhibition of recombinant human carbonic anhydrase 9 incubated for 6 hrs prior to testing measured for 10 to 100 secs by phenol red-based stopped-flow CO2 hydration assay.
For orientation: Ki means the dissociation constant of the complex between target and ligand, obtained from inhibition or displacement. In the case of `CCn1c(-c2ccc(Cl)cc2Cl)cs/c1=N/c1ccc(S(N)(=O)=O)cc1`, the Ki is 225 nM. Under `CCn1c(-c2ccc(F)cc2)cs/c1=N/c1ccc(S(N)(=O)=O)cc1` stands 3930 nM; under `CCn1c(-c2ccc(Cl)cc2)cs/c1=N/c1ccc(S(N)(=O)=O)cc1`, 109 nM. In the case of `CCn1c(-c2ccc(F)cc2F)cs/c1=N/c1ccc(S(N)(=O)=O)cc1`, the Ki is 144 nM. As to `CCn1c(-c2ccc(C#N)cc2)cs/c1=N/c1ccc(S(N)(=O)=O)cc1`, the Ki is 4330 nM. Turning to `CCn1c(-c2ccc([N+](=O)[O-])cc2)cs/c1=N/c1ccc(S(N)(=O)=O)cc1`, the inhibition constant Ki is 4320 nM. Regarding `CCn1c(-c2ccc(OC)cc2)cs/c1=N/c1ccc(S(N)(=O)=O)cc1`, the Ki worked out at 205 nM. Consider `CCn1c(-c2cccc([N+](=O)[O-])c2)cs/c1=N/c1ccc(S(N)(=O)=O)cc1`, for which the Ki was 214 nM.

Turning to `CCn1c(-c2ccccc2)cs/c1=N/c1ccc(S(N)(=O)=O)cc1`, the Ki is 248 nM. Turning to `CCn1c(-c2cccs2)cs/c1=N/c1ccc(S(N)(=O)=O)cc1`, the Ki was determined as 297 nM.

Take `CCn1c(-c2ccc(-c3ccccc3)cc2)cs/c1=N/c1ccc(S(N)(=O)=O)cc1`: the inhibition constant (Ki) amounted to 4310 nM. Take `CCn1c(-c2ccc(Br)cc2)cs/c1=N/c1ccc(S(N)(=O)=O)cc1`: the Ki worked out at 3390 nM. As for `CCn1c(-c2ccc(C)cc2)cs/c1=N/c1ccc(S(N)(=O)=O)cc1`, the Ki was 358 nM.

(Values after ChEMBL document CHEMBL4613303, “New Dihydrothiazole Benzensulfonamides: Looking for Selectivity toward Carbonic Anhydrase Isoforms I, II, IX, and XII” (ACS Med Chem Lett, 2020).)
